Data on four molecules can be found in US20120131687A1 (priority 2008, published 2012).

Assay [1] concerns the target T1, cotton aphid seizure D2 (Aphis gossypii, UniProt A0A9P0IRJ5, DEL620-651/K982T, form not given). In words: Whole cell patch clamp method using CHO cell expressing cotton aphid seizure D2. The class given is cell-based. The following applies: 30 μM clofilium. The method, then: Using a CHO cell expressing cotton aphid seizure D2, an activity of a voltage-gated potassium channel was measured by a whole cell patch clamp method.
According to a general tissue culturing procedure, pGBB036 produced in Example 5 was transiently introduced into the CHO cell. In order to confirm that gene introduction is successful, a GFP gene which is a fluorescent marker was simultaneously introduced into the CHO cell. A ratio of pGBB036 and the marker gene was 10:1. It was possible to simply identify the cell for which gene introduction was successful with an incident-light fluorescence microscope. After cultured for 24 hours, the gene-introduced cell was dispensed, frozen, and immediately cryopreserved at −150° C. On the day before implementation of an electrophysiological experiment, the cryopreserved cell was suspended in a fresh medium again, and the cell was seeded on a cover glass having a diameter of 12 mm which was spread in a petri dish. The petri dish was retained at a temperature of 37° C. under the condition of CO2 at a 5% concentration. […]
Recording by the whole cell patch clamp method was implemented on one CHO cell. […] Recorded signals were all amplified with an amplifier PC-501A manufactured by Warner Instruments (Hamden, Conn., USA) and, thereafter, was digitalized at 10 kHz. […]

Another assay relates to Aphis gossypii. In words: Pesticidal activity test on artificial feed. The class given is in vivo. The following applies: 50 ppm in artificial feed, six days, controlling value of 30% or more = active.
The target in assay [2] is T1, cotton aphid seizure D2. In words: Electropharyngeogram of recombinant nematode UG2242 expressing cotton aphid seizure D2. The class given is in vivo. The method, then: By recording a electropharyngeogram using UG2242 which is a transient transformed line, and UG2346 which is a stable transformed line, it was confirmed that the introduced cotton aphid seizure gene was expressed in a functional form.
An imago of a nematode reared at 20° C. was prepared. Using Dent's saline (composition in mM; D-glucose 10 mM, HEPES 10 mM, NaCl 140 mM, KCl 6 mM, CaCl2 3 mM, MgCl2 1 mM, pH 7.4) containing 20 mM serotonin promoting pumping as a chamber internal solution, the nematode was placed into the chamber. Aspiration was performed until the Dent's saline which is a chamber internal solution was contacted with an electrode in a micropipette. After mild aspiration, a head of the nematode was inserted into a tip of a pipette for recording. Data was obtained with an amplifier (Multiclamp 700-A, Axon instruments) and an A/D converter (Digidata 1322A, Axon instruments).

The target of assay [3] is nematode functionally expressing cotton aphid seizure (Aphis gossypii, UniProt A0A9P0IRJ5, DEL620-651/K982T, form not given). In words: Feeding behavior activity (calcein AM intake) of recombinant nematode UG2346 functionally expressing cotton aphid seizure. The following applies: read-out: Activity to inhibit feeding behavior of nematode functionally expressing cotton aphid seizure (IC50), 0.03-100 μM. The class given is in vivo. As to the method: In the pharynx of a gene-altered nematode, change in electric activity in cotton aphid seizure influences on an action of the pharynx, that is, intake of food. Therefore, the ability to change an activity of cotton aphid seizure can be measured as the ability to change intake of food, of the gene-recombinant nematode.
Intake of food of the nematode was measured by a method of adding a fluorescent dye precursor to a medium. Specifically, since the fluorescent dye precursor orally taken by the nematode is enzymatically converted into a fluorescent dye in the gut, and a fluorescent signal emitted by the gene-recombinant nematode is increased, intake of food of the nematode can be measured as a fluorescent signal emitted by the nematode.
For measuring the activity to change a feeding behavior activity of a nematode expressing cotton aphid seizure in a functional form, a fluorescent dye precursor was added to a liquid medium containing the nematode expressing cotton aphid seizure in a functional form, and intake of the fluorescent dye precursor orally ingested by the nematode was detected as a fluorescent signal emitted by the nematode. When intake of the fluorescent dye precursor was defined as a feeding behavior activity, an influence of a test substance on a feeding behavior activity was assessed as an influence, on an activity of cotton aphid seizure. […]

Assay [4] deals with T1, cotton aphid seizure D2. In words: Electrophysiological analysis by two-electrode voltage clamp (TEVC) method using Xenopus laevis oocyte. The class given is cell-based. Conditions: read-out: IC50 on cotton aphid seizure D2, protocol IV. An excerpt: Regarding four kinds of cotton aphid seizure splice variants (D1, D2, E1, E2), a gene optimal for producing a gene-recombinant nematode was selected by electrophysiological analysis by the two-electrode voltage clamp method (TEVC method) using an oocyte of Xenopus laevis.
In order to continuously maintain circulation and cleaning of water, female Xenopus laevis was reared in a water bath equipped with an air pump and a filtration device. For Xenopus laevis, a laboratory rearing line was purchased from NASCO (Fort Atkinson, Wis., USA), and adapted to a dry sample, and used in an experiment. Xenopus laevis was reared in tap water retained at a water temperature of 18° C., and a light/dark cycle of each 12 hours was artificially given. Xenopus laevis was anesthetized using a 2 g/l tolycaine aqueous solution, and subsequently cooled with an ice. […]
Using an amplifier TEC-03X manufactured by npi electronics (Tamm, Germany), and software Cellworks, an electrophysiological measurement was performed by the two-electrode voltage clamp method. Experimental data was recorded at room temperature (20 to 25° C.). […]
An activity of a compound was measured using protocol IV by the following procedure. […]
At each test concentration, an amplitude of a current waveform in last three times of continuous pulses was averaged, and a calculated current value was used for calculating an inhibition degree. […]

For another assay, the system named is nematode. Conditions: Drinking Assay, WO 01/88532; cited from earlier work.

T1 sequence (A0A9P0IRJ5 entry or part of it DEL620-651/K982T, form open): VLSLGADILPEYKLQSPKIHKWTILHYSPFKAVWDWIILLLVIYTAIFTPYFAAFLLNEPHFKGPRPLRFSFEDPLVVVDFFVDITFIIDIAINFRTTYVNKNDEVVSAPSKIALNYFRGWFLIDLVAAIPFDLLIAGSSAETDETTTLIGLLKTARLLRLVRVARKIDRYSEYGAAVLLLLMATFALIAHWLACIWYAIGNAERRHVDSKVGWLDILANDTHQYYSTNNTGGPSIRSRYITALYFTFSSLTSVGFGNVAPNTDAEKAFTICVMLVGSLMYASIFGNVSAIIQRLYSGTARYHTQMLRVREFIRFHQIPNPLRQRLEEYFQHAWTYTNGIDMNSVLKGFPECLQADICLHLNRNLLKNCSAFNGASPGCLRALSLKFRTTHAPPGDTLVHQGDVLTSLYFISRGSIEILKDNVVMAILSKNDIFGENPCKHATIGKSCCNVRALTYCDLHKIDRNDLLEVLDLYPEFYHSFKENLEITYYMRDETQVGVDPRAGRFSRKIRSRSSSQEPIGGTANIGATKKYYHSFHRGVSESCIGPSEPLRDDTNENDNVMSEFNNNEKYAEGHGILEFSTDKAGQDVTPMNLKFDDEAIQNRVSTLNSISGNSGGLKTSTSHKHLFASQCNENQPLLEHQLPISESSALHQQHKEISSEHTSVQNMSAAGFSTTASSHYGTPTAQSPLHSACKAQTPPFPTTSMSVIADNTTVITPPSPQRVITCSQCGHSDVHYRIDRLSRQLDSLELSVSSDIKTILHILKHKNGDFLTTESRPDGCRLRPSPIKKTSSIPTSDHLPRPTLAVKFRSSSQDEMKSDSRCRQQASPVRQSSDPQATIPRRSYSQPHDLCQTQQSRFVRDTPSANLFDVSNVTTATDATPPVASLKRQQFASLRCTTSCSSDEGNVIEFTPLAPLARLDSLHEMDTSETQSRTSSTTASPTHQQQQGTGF
Sequence of nematode functionally expressing cotton aphid seizure (A0A9P0IRJ5 entry or part of it DEL620-651/K982T, form open): as above
Description for Aphis gossypii: Then, according to the same manner as that of the method described in Handbook of Insect Rearing Vol. 1 (Elsevier Science Publishers 1985) pp. 35 to pp. 36 except that a test compound dissolved in DMSO to a final concentration of 50 ppm was added at 0.5% volume of the artificial feed, and components were mixed, Aphis gossypii was reared. […] Controlling value(%)={1−(Cb×Tai)/(Cai×Tb)}×100 Letters in the equation represent the following meanings. Cb: Number of surviving worms before treatment in non-treated section Cai: Number of surviving worms at observation in non-treated section Tb: Number of surviving worms before treatment in treated section Tai: Number of surviving worms at observation in treated section

As to `CCCCCCC[N+](CC)(CC)CCCCc1ccc(Cl)cc1.Cc1ccc(S(=O)(=O)[O-])cc1` [clofilium], at cotton aphid seizure D2 [1], the “activity of a channel inhibited relative to non-treatment” value is 86%. In addition, the “Result of determination of insecticidal activity” value in the assay with Aphis gossypii was “Having insecticidal activity”. The “length of a potential waveform in electropharyngeogram” value on cotton aphid seizure D2 [2] (5 μM treatment for 5 minutes) is recorded as “significantly increased”. Moreover, the “potential waveform in electropharyngeogram” value at cotton aphid seizure D2 [2] (5 μM treatment, after 15 minutes) is given as “the same potential waveform as that of a wild-type”. Also, the IC50 in assay [3] is 4 µM; at cotton aphid seizure D2 [4] it was ~1 µM.

Turning to ivermectin, the “food intake by a nematode” value with nematode is given as “inhibits food intake”.

For the molecule `CN(C)CCCN1c2ccccc2CCc2ccc(Cl)cc21` [clomipramine], in the assay with nematode, the “food intake by a nematode” value is reported as “increases food intake”.

Consider `CN(CCOc1ccc(NS(C)(=O)=O)cc1)CCc1ccc(NS(C)(=O)=O)cc1` [Dofetilide], for which the IC50 at cotton aphid seizure D2 [4] was ~23 µM.
